System: transgenic mice carrying FSHβLCR/tet receptor plus tet operator/FSHβ gene
Assay: Ovulation (oocyte count) in FSHβ-switch transgenic female mice fed Dox
Format: in vivo
Source text: Female mice (7 weeks old) were fed rat chow±Dox (6 gm/kg) and were put with males 6 days after feeding began. Females were checked for copulation plugs am and pm and were euthanized the morning plugs were found; uteri and ovaries were excised from each mouse and oocytes were freed from the ampulla and separated from cumulus cells with hyaluronidase (FIG. 3B). Oocytes were counted (see FIG. 3A). All Dox-fed mice ovulated within 5 days of male exposure except one (19 days) and it produced 90 oocytes. The sheep FSHβLCR was isolated along with its promoter in accordance with standard techniques and operatively associated with a new structural gene, the tet receptor, so that mice carrying this transgene expressed the tet receptor exclusively and strongly in pituitary gonadotropes. Linked to the […] was a second gene unit: the tet operator operatively associated with the structural gene for sheep FSHβ. […] The increase in FSHβ production created more FSH which increased ovulation by 2.4-fold (from an average of 12±0.5 to 29±4). Ovulation of this magnitude is matched only by time-consuming treatments with costly fertility hormones.

With `C[C@H]1c2cccc(O)c2C(=O)C2=C(O)[C@]3(O)C(=O)C(C(N)=O)=C(O)[C@@H](N(C)C)[C@@H]3[C@@H](O)[C@@H]21` [doxycycline] the “time to ovulation after male exposure” value (all Dox-fed mice except one (19 days)) was ≤ 5 days, the “oocytes produced by a single mouse” value (the one Dox-fed mouse that ovulated at 19 days of male exposure, oocytes appeared normal) was 90 and the “oocytes ovulated, average” value (transgenic female mice, 7 weeks old, rat chow with Dox 6 gm/kg, put with males 6 days after feeding began, without Dox average 12±0.5) was 29±4. The increase in ovulation (transgenic mice, ligand administered vs not administered) was 2.4 fold.
